Assay results taken from patent publication US12116343B2, “Inhibitors of APOL1 and methods of using same” (Vertex Pharmaceuticals Incorporated, priority 2020, dated 2024).
pIC50: −log10 of the molar value. Read-outs that look alike come from different tables or passages of the source.

Target: T1, G1 APOL1 (Homo sapiens, UniProt O14791, I384M/S342G)
T1 construct: expressed in transfected cells
T1 sequence (O14791 28-398 S342G/I384M): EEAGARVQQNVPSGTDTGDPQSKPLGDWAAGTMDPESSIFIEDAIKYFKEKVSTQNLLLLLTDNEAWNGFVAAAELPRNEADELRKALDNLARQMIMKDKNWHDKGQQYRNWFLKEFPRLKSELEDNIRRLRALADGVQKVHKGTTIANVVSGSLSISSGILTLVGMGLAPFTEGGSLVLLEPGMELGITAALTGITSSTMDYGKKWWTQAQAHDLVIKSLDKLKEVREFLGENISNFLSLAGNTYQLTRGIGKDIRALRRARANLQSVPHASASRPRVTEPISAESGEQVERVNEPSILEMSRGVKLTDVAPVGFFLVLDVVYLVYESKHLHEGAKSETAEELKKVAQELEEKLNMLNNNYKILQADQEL
Test: Acute APOL1 Thallium Assay with inducible stable clones of HEK 293 cells
Type: cell-based
Settings: read-out: Thallium Assay (IC50)
Excerpt: Acute APOL1 Thallium Assay with Inducible Stable Clones of HEK 293 Cells
Apolipoprotein L1 (APOL1) proteins form potassium-permeable cation pores in the plasma membrane. APOL1 risk variants (G1 and G2) induce greater potassium flux than G0 in HEK293 cells. This assay exploits the permeability of thallium (Tl+) through ligand-gated potassium channels. The dye produces a bright fluorescent signal upon binding to Tl+ conducted through potassium channels. The intensity of the Tl+ signal is proportional to the number of potassium channels in the open state. Therefore, it provides a functional indication of the potassium channel activities. During the initial dye-loading step, the Tl+ indicator dye as an acetoxymethyl (AM) ester enters the cells through passive diffusion. Cytoplasm esterases cleave the AM ester and relieve its active thallium-sensitive form. The cells are then stimulated with Tl+. The increase of fluorescence in the assay represents the influx of Tl+ into the cell specifically through the potassium channel (i.e. through APOL1 pores), providing a functional measurement of potassium channel/pore activity. The Thallium assay is conducted with cells expressing G1 APOL1.
APOL1 Cell Line (HEK T-Rex Stable Inducible Cell Line) • HEK T-Rex System • Tetracycline (Tet) inducible mammalian expression system. • Stably express the Tet repressor to regulate transcription. • Expression under the full-length CMV promoter. • APOL1 stable inducible cell line Clone used: G1 DC3.25
Tissue Culture Media • Cell Culture Medium • DMEM+10% FBS+P/S+5 μg/mL blasticidin+1 μg/mL puromycin. • 500 mL DMEM+55 mL FBS+5 mL P/S+280 μL blasticidin S HCl (10 mg/mL)+56 μL puromycin (10 mg/mL). • Cell Assay Medium • DMEM with 2% FBS+pen strep.
Instruments and Equipment • Nuaire cell culture hood, Cat. No. 540-600 • 37° C./5% CO2 incubator link to robotic arm, Liconic: STX110 • Molecular Devices FLIPR^Tetra High throughput cellular screening system, Cat. No. FT0324, Molecular Devices • ThermoFisher MultiDrop 384, Cat. No. 5840300 • Biotek Microfill, Cat. No. ASF1000A-4145 • BioRad TC10 cell counter, Cat. No. 145-0010 Assay Procedures
Cells Scaled Up from Frozen Vials • APOL1 G1 3.25 (HEK293 T-Rex) frozen vials: 5 million cells per vial • Step 1, Day 1: Defrost frozen vial into T-225. • Step 2, Day 5: (when 85% confluent): Split one T-225 at 3×10^6 cells per flask. • Step 3, Day 8: Splits cells to set up for the assay plates as described below.
T-Rex APOL1 HEK cells are split twice per week to keep the confluence state below 85% of the culture flask surface area. Cells can be kept until passage 25. • Cell Culture Medium • DMEM high glucose+10% FBS, +P/S, +5 μg/mL blasticidin, +1 μg/mL puromycin. • 500 mL DMEM, +55 mL FBS, +5 mL P/S, +280 μL blasicidin 10 mg/mL, +56 μL Puromycin 10 mg/mL. • Assay Media • Opti-MEM reduced serum medium from Invitrogen.
Preparation of Cell Assay Plates • Culture medium is removed from the x cm^2 T-flask by aspiration. • The cell monolayer is rinsed with PBS 1× at room temperature. PBS is removed by aspiration. • Cells are trypsinized using Trypsin. • The flasks are incubated at room temperature for 2-3 minutes. • Complete DMEM medium is then added. Cell suspension is then transferred to a 50 mL Falcon polypropylene tube. • Cells are then counted using a Biorad TC10 cell counter and the required amount of cells are centrifuged at 1200 RPM for 5 minutes. Required amount is 1.3×10^6 cells/mL APOL1 T-Rex HEK cells. • The pellet is suspended in the assay medium. • Using the MultiDrop, add 20 μL to each well (corresponds to 26000 cells total per well) of a 384-well black, transparent, flat bottom Poly-D coated plate. • Tetracycline as prepared in the following section is added to the cells before plating to induce APOL1 expression. • Plates are left at room temperature for 20 to 30 minutes before incubation at 37° C. and 5% CO2. […]

[1] = HEK 293 T-Rex cells expressing G1 APOL1

SMILES	pIC50 [1]	pIC50 (Table 24, Compounds 287 to 465)
O=C(NCCO)C1CC(c2c(-c3ccc(F)cc3)[nH]c3c(F)cc(C(F)(F)F)cc23)C1 (stereo not shown) [Compound 279]	6.00 to 6.60	–
O=C(NCC1CCOCC1)C1CC(Cc2c(-c3ccc(F)cc3)[nH]c3c(F)cc(F)cc23)C1 (stereo not shown) [Compound 326]	–	< 6.00
COCCNC(=O)CC1CC(c2c(-c3ccc(F)cc3)[nH]c3c(F)cc(F)cc23)C1 (stereo not shown) [Compound 460]	–	< 6.00
C[C@H](O)[C@H](CO)NC(=O)O[C@H]1C[C@H](c2c(-c3ccc(F)cc3)[nH]c3c(F)cc(F)cc32)C1 [Compound 366]	–	< 6.00
CC(C)(CO)NC(=O)O[C@H]1C[C@H](c2c(-c3ccc(F)cc3)[nH]c3c(F)cc(F)cc32)C1 [Compound 352]	–	6.00 to 6.60
CC(CO)NC(=O)O[C@H]1C[C@H](c2c(-c3ccc(F)cc3)[nH]c3c(F)cc(F)cc32)C1 (mixture of isomers) [Compound 356]	–	6.00 to 6.60
O=C(N[C@@H]1CCOC1)[C@H]1C[C@@H](c2c(-c3ccc(F)cc3)[nH]c3c(F)cc(F)cc32)C1 [Compound 269]	< 6.00	–
O=C(NCC(O)CO)[C@H]1C[C@@H](c2c(-c3ccc(F)cc3)[nH]c3c(F)cc(F)cc32)C1 (stereo partly shown) [Compound 244]	< 6.00	–
CON(C)C(=O)CN[C@H]1C[C@H](c2c(-c3ccc(F)cc3)[nH]c3c(F)cc(F)cc32)C1 [Compound 292]	–	< 6.00
NC(=O)CNC(=O)C1CC(c2c(-c3ccc(F)cc3)[nH]c3c(F)cc(C(F)(F)F)cc23)C1 (stereo not shown) [Compound 280]	> 6.60	–
NC(=O)CNC[C@H]1C[C@H](c2c(-c3ccc(F)cc3)[nH]c3c(F)cc(F)cc32)C1 [Compound 445, 2-((((1r,3r)-3-(5,7-difluoro-2-(4-fluorophenyl)-1H-indol-3-yl)cyclobutyl)methyl)amino)acetamide]	–	> 6.60
Cc1ccn(CCNC(=O)[C@H]2C[C@@H](c3c(-c4ccc(F)cc4)[nH]c4c(F)cc(F)cc43)C2)n1 [Compound 263]	6.00 to 6.60	–
CC(C)(O)CNC(=O)NC[C@H]1C[C@H](c2c(-c3ccc(F)cc3)[nH]c3c(F)cc(F)cc32)C1 [Compound 423]	–	< 6.00
O=C(NC1CC(O)C1)O[C@H]1C[C@H](c2c(-c3ccc(F)cc3)[nH]c3c(F)cc(F)cc32)C1 (stereo partly shown) [Compound 383]	–	< 6.00
O=C1CCC(NC(=O)[C@H]2C[C@@H](c3c(-c4ccc(F)cc4)[nH]c4c(F)cc(F)cc43)C2)C(=O)N1 (stereo partly shown) [Compound 252]	< 6.00	–
CC[C@@H](CO)NC(=O)NC[C@H]1C[C@H](c2c(-c3ccc(F)cc3)[nH]c3c(F)cc(F)cc32)C1 [Compound 421]	–	< 6.00
C[C@@H](NCC1CC(c2c(-c3ccc(F)cc3)[nH]c3c(F)cc(F)cc23)C1)C(=O)N(C)C (stereo partly shown) [Compound 438]	–	< 6.00
CCNC(=O)N1CC(c2c(-c3ccc(F)cc3)[nH]c3c(F)cc(F)cc23)C1 [Compound 464, 3-[5,7-difluoro-2-(4-fluorophenyl)-1H-indol-3-yl]-N-ethyl-azetidine-1-carboxamide]	–	6.00 to 6.60
CC(C)NC(=O)CN[C@H]1C[C@H](c2c(-c3ccc(F)cc3)[nH]c3c(F)cc(F)cc32)C1 [Compound 290]	–	< 6.00
O=C1NC[C@@H](O)[C@@H]1NC(=O)[C@H]1C[C@H](c2c(-c3ccc(F)cc3)[nH]c3c(F)cc(F)cc32)C1 [Compound 229]	> 6.60	–
CC1(C(=O)N[C@H]2CCNC2=O)CC(c2c(-c3ccc(F)cc3)[nH]c3c(F)cc(F)cc23)C1 (mixture of isomers) [Compound 284]	6.00 to 6.60	–
CC(O)(CO)CNC(=O)C1CC(Cc2c(-c3ccc(F)cc3)[nH]c3c(F)cc(F)cc23)C1 (stereo not shown) [Compound 324]	–	< 6.00

SMILES	pIC50 [1]	pIC50 (Table 24, Compounds 287 to 465)
O=C(NC[C@@H](O)C(F)(F)F)NC[C@H]1C[C@H](c2c(-c3ccc(F)cc3)[nH]c3c(F)cc(F)cc32)C1 [Compound 424]	–	< 6.00
C[C@@H](O)CNC(=O)N(C)CC1CC(c2c(-c3ccc(F)cc3)[nH]c3c(F)cc(F)cc23)C1 (stereo partly shown) [Compound 429]	–	< 6.00
O=C(NC1(CO)CC1)C1(F)CC(c2c(-c3ccc(F)cc3)[nH]c3c(F)cc(F)cc23)C1 (stereo not shown) [Compound 285]	> 6.60	–
O=C(NCC1CCCO1)C1CC(Cc2c(-c3ccc(F)cc3)[nH]c3c(F)cc(F)cc23)C1 (stereo not shown) [Compound 321]	–	< 6.00
O=C(NC1CC(O)C1)[C@H]1C[C@@H](c2c(-c3ccc(F)cc3)[nH]c3c(F)cc(F)cc32)C1 (stereo partly shown) [Compound 239]	< 6.00	–
O=C(NCC1(O)CC1)NC[C@H]1C[C@H](c2c(-c3ccc(F)cc3)[nH]c3c(F)cc(F)cc32)C1 [Compound 399]	–	< 6.00
C[C@H](CO)NC(=O)CNC(=O)[C@H]1C[C@H](c2c(-c3ccc(F)cc3)[nH]c3c(F)cc(F)cc32)C1 [Compound 232]	< 6.00	–
O=C(NC[C@H]1C[C@H](c2c(-c3ccc(F)cc3)[nH]c3c(F)cc(F)cc32)C1)NC1CC(O)C1 (stereo partly shown) [Compound 420]	–	< 6.00
O=C(NCC(F)F)[C@H]1C[C@@H](c2c(-c3ccc(F)cc3)[nH]c3c(F)cc(F)cc32)C1 [Compound 238]	6.00 to 6.60	–
O=C(NC[C@H]1C[C@H](c2c(-c3ccc(F)cc3)[nH]c3c(F)cc(F)cc32)C1)NC1(CO)CCOC1 (stereo partly shown) [Compound 425]	–	< 6.00
CCC(O)CNC(=O)O[C@H]1C[C@H](c2c(-c3ccc(F)cc3)[nH]c3c(F)cc(F)cc32)C1 (stereo partly shown) [Compound 388]	–	< 6.00
C[C@@H](CO)NC(=O)[C@H]1C[C@@H](c2c(-c3ccc(F)cc3)[nH]c3c(F)cc(F)cc32)C1 [Compound 271]	6.00 to 6.60	–
C[C@H](O)CNC(=O)O[C@H]1C[C@H](c2c(-c3ccc(F)cc3)[nH]c3c(F)cc(F)cc32)C1 [Compound 365]	–	< 6.00
Cn1cncc1CNC(=O)C1CC(Cc2c(-c3ccc(F)cc3)[nH]c3c(F)cc(F)cc23)C1 (stereo not shown) [Compound 344]	–	< 6.00
O=C(NC[C@H]1C[C@H](c2c(-c3ccc(F)cc3)[nH]c3c(F)cc(F)cc32)C1)N[C@H]1C[C@H](O)C1 [Compound 411]	–	< 6.00
NC(=O)CNC1CC(c2c(-c3ccc(F)cc3)[nH]c3c(F)cc(F)cc23)C1 (stereo not shown) [Compound 288, 2-[[3-[5,7-difluoro-2-(4-fluorophenyl)-1H-indol-3-yl]cyclobutyl]amino]acetamide]	–	< 6.00
CON(C)C(=O)CNC[C@H]1C[C@H](c2c(-c3ccc(F)cc3)[nH]c3c(F)cc(F)cc32)C1 [Compound 450]	–	6.00 to 6.60
O=C(N[C@@H]1CCNC1=O)O[C@H]1C[C@H](c2c(-c3ccc(F)cc3)[nH]c3c(F)cc(F)cc32)C1 [Compound 359]	–	6.00 to 6.60
Cn1nccc1NC(=O)[C@H]1C[C@@H](c2c(-c3ccc(F)cc3)[nH]c3c(F)cc(F)cc32)C1 [Compound 247]	< 6.00	–
COCCNC(=O)[C@H]1C[C@@H](c2c(-c3ccc(F)cc3)[nH]c3c(F)cc(F)cc32)C1 [Compound 242]	< 6.00	–
O=C(CC1CC(c2c(-c3ccc(F)cc3)[nH]c3c(F)cc(F)cc23)C1)NC1(CO)CC1 (stereo not shown) [Compound 453]	–	6.00 to 6.60
